What was measured:
Assay type in all cases: functional
[1] = tested on: Malme-3M; experiment: Cytotoxicity against human MALME-3M cells assessed as cell growth level at 100 nM after 48 hrs by sulforhodamine B assay
[2] = tested on: RPMI-8226; experiment: Cytotoxicity against human RPMI8226 cells after 48 hrs by sulforhodamine B assay; conditions: RPMI-8226, 48 h
[3] = tested on: SNB-75; experiment: Cytotoxicity against human SNB75 cells assessed as cell growth level at 10 nM after 48 hrs by sulforhodamine B assay
[4] = tested on: U-251; experiment: Cytotoxicity against human U251 cells assessed as cell growth level at 1 uM after 48 hrs by sulforhodamine B assay
[5] = tested on: MDA-MB-468; experiment: Cytotoxicity against human MDA-MB-468 cells assessed as cell growth level at 100 nM after 48 hrs by sulforhodamine B assay
[6] = tested on: SNB-19; experiment: Cytotoxicity against human SNB19 cells assessed as cell growth level at 10 nM after 48 hrs by sulforhodamine B assay
[7] = tested on: MCF7; experiment: Cytotoxicity against human MCF7 cells assessed as cell growth level at 1 uM after 48 hrs by sulforhodamine B assay
[8] = tested on: RPMI-8226; experiment: Cytotoxicity against human RPMI8226 cells assessed as cell growth level at 10 nM after 48 hrs by sulforhodamine B assay
[9] = tested on: IGROV-1; experiment: Cytotoxicity against human IGROV1 cells assessed as cell growth level at 100 nM after 48 hrs by sulforhodamine B assay
[10] = tested on: OVCAR-5; experiment: Cytotoxicity against human OVCAR5 cells assessed as cell growth level at 100 nM after 48 hrs by sulforhodamine B assay
[11] = tested on: LOX IMVI; experiment: Cytotoxicity against human LOXIMVI cells assessed as cell growth level at 1 uM after 48 hrs by sulforhodamine B assay
[12] = tested on: HL-60(TB); experiment: Cytotoxicity against human HL-60(TB) cells assessed as cell growth level at 10 nM after 48 hrs by sulforhodamine B assay
[13] = tested on: OVCAR-4; experiment: Cytotoxicity against human OVCAR4 cells assessed as cell growth level at 100 uM after 48 hrs by sulforhodamine B assay
[14] = tested on: SF-539; experiment: Cytotoxicity against human SF539 cells assessed as cell growth level at 1 uM after 48 hrs by sulforhodamine B assay
[15] = tested on: SN12C; experiment: Cytotoxicity against human SN12C cells assessed as cell growth level at 100 uM after 48 hrs by sulforhodamine B assay
[16] = tested on: A549; experiment: Cytotoxicity against human A549/ATCC cells assessed as cell growth level at 10 uM after 48 hrs by sulforhodamine B assay
[17] = tested on: OVCAR-5; experiment: Cytotoxicity against human OVCAR5 cells assessed as cell growth level at 1 uM after 48 hrs by sulforhodamine B assay
[18] = tested on: K562; experiment: Cytotoxicity against human K562 cells assessed as cell growth level at 100 nM after 48 hrs by sulforhodamine B assay
[19] = tested on: 786-0; experiment: Cytotoxicity against human 786-0 cells assessed as cell growth level at 10 nM after 48 hrs by sulforhodamine B assay
[20] = tested on: KM12; experiment: Cytotoxicity against human KM12 cells assessed as cell growth level at 1 uM after 48 hrs by sulforhodamine B assay
[21] = tested on: SF-268; experiment: Cytotoxicity against human SF268 cells after 48 hrs by sulforhodamine B assay; conditions: SF-268, 48 h
[22] = tested on: NCI-H226; experiment: Cytotoxicity against human NCI-H226 cells assessed as cell growth level at 1 uM after 48 hrs by sulforhodamine B assay
[23] = tested on: CAKI-1; experiment: Cytotoxicity against human CAKI-1 cells after 48 hrs by sulforhodamine B assay; conditions: CAKI-1, 48 h
[24] = tested on: LOX IMVI; experiment: Cytotoxicity against human LOXIMVI cells assessed as cell growth level at 10 nM after 48 hrs by sulforhodamine B assay
[25] = tested on: MDA-MB-231; experiment: Cytotoxicity against human MDA-MB-231/ATCC cells assessed as cell growth level at 100 uM after 48 hrs by sulforhodamine B assay
[26] = tested on: HOP-62; experiment: Cytotoxicity against human HOP62 cells assessed as cell growth level at 10 uM after 48 hrs by sulforhodamine B assay
[27] = tested on: SF-295; experiment: Cytotoxicity against human SF295 cells assessed as cell growth level at 100 uM after 48 hrs by sulforhodamine B assay
[28] = tested on: IGROV-1; experiment: Cytotoxicity against human IGROV1 cells assessed as cell growth level at 100 uM after 48 hrs by sulforhodamine B assay
[29] = tested on: MDA-MB-468; experiment: Cytotoxicity against human MDA-MB-468 cells assessed as cell growth level at 1 uM after 48 hrs by sulforhodamine B assay
[30] = tested on: MDA-MB-435; experiment: Cytotoxicity against human MDA-MB-435 cells assessed as cell growth level at 1 uM after 48 hrs by sulforhodamine B assay
[31] = tested on: RPMI-8226; experiment: Cytotoxicity against human RPMI8226 cells assessed as cell growth level at 100 nM after 48 hrs by sulforhodamine B assay
[32] = tested on: HCT-116; experiment: Cytotoxicity against human HCT116 cells after 48 hrs by sulforhodamine B assay; conditions: HCT-116, 48 h
[33] = tested on: HT-29; experiment: Cytotoxicity against human HT-29 cells assessed as cell growth level at 100 uM after 48 hrs by sulforhodamine B assay
[34] = tested on: SK-MEL-5; experiment: Cytotoxicity against human SK-MEL-5 cells assessed as cell growth level at 10 nM after 48 hrs by sulforhodamine B assay
[35] = tested on: T47D; experiment: Cytotoxicity against human T47D cells assessed as cell growth level at 100 uM after 48 hrs by sulforhodamine B assay
[36] = tested on: OVCAR-3; experiment: Cytotoxicity against human OVCAR3 cells assessed as cell growth level at 100 uM after 48 hrs by sulforhodamine B assay
[37] = tested on: ACHN; experiment: Cytotoxicity against human ACHN cells assessed as cell growth level at 10 nM after 48 hrs by sulforhodamine B assay
[38] = tested on: SK-OV-3; experiment: Cytotoxicity against human SKOV3 cells assessed as cell growth level at 100 uM after 48 hrs by sulforhodamine B assay
[39] = tested on: K562; experiment: Cytotoxicity against human K562 cells assessed as cell growth level at 1 uM after 48 hrs by sulforhodamine B assay
[40] = tested on: NCI-H460; experiment: Cytotoxicity against human NCI-H460 cells assessed as cell growth level at 1 uM after 48 hrs by sulforhodamine B assay
[41] = tested on: OVCAR-4; experiment: Cytotoxicity against human OVCAR4 cells assessed as cell growth level at 10 nM after 48 hrs by sulforhodamine B assay
[42] = read-out: LC50 (the source's name)
[43] = read-out: pLC50 (the source's name) (converted)

Compound: O=c1oc2ccccc2cc1-c1csc(N/N=C/c2c[nH]c3ccccc23)n1
- Activity [1]: 94%
- GI50 ([2]; read-out: GI50): 0.9 µM
- CC50 [2, 42]: > 100 µM
- TGI ([2]; read-out: TGI): 4.79 µM
- GI50 ([2]; read-out: pGI50 (converted)): 0.912 µM
- CC50 [2, 43]: > 100 µM
- TGI ([2]; read-out: pTGI (converted)): 4.79 µM
- Activity [3]: 94%
- Activity [4]: 103%
- Activity [5]: 83%
- Activity [6]: 91%
- Activity [7]: 69%
- Activity [8]: 99%
- Activity [9]: 107%
- Activity [10]: 99%
- Activity [11]: 74%
- Activity [12]: 92%
- Activity [13]: -24%
- Activity [14]: 87%
- Activity [15]: -51%
- Activity [16]: -30.98%
- Activity [17]: 87%
- Activity [18]: 110%
- Activity [19]: 86%
- Activity [20]: 95%
- GI50 ([21]; read-out: GI50): 1.93 µM
- CC50 [21, 42]: > 100 µM
- TGI ([21]; read-out: TGI): 8.77 µM
- GI50 ([21]; read-out: pGI50 (converted)): 1.95 µM
- CC50 [21, 43]: > 100 µM
- TGI ([21]; read-out: pTGI (converted)): 8.71 µM
- Activity [22]: 101%
- GI50 ([23]; read-out: GI50): 1.61 µM
- CC50 [23, 42]: > 100 µM
- TGI ([23]; read-out: TGI): 4.65 µM
- GI50 ([23]; read-out: pGI50 (converted)): 1.62 µM
- CC50 [23, 43]: > 100 µM
- TGI ([23]; read-out: pTGI (converted)): 4.68 µM
- Activity [24]: 91%
- Activity [25]: -3%
- Activity [26]: 11.3%
- Activity [27]: -71%
- Activity [28]: -71%
- Activity [29]: 72%
- Activity [30]: 79%
- Activity [31]: 94%
- GI50 ([32]; read-out: GI50): 1.6 µM
- CC50 [32, 42]: 6.49 µM
- TGI ([32]; read-out: TGI): 3.22 µM
- GI50 ([32]; read-out: pGI50 (converted)): 1.58 µM
- CC50 [32, 43]: 6.46 µM
- TGI ([32]; read-out: pTGI (converted)): 3.24 µM
- Activity [33]: -81%
- Activity [34]: 96%
- Activity [35]: -35%
- Activity [36]: -2%
- Activity [37]: 99%
- Activity [38]: -48%
- Activity [39]: 100%
- Activity [40]: 52%
- Activity [41]: 90%

Reference: ChEMBL document CHEMBL3580659, “One-pot multicomponent synthesis of indole incorporated thiazolylcoumarins and their antibacterial, anticancer and DNA cleavage studies” (2015)
